Source: patent US9018214B2, “Bicyclic heterocycle compounds and their uses in therapy” (Astex Therapeutics Limited, priority 2011, dated 2015)
Where a name gives a salt, the structure may show the parent alone. Read-outs that look alike come from different tables or passages of the source.

Legend:
[1] = molecular target: BIR3 domain of human XIAP (residues 252-350) (Homo sapiens (Human), UniProt P98170); assay: XIAP in vitro competitive displacement binding assay (fluorescence polarization); details: for IC50: read-out: IC50 or PI Xiap: IC50
[2] = molecular target: BIR3 domain of human cIAP-1 (residues 267-363) (Homo sapiens (Human), UniProt Q13490); assay: cIAP-1 in vitro competitive displacement binding assay (fluorescence polarization; Probe A AVPIK(5&6FAM)-amide or Probe B AbuRPFK(5&6FAM)-amide)
[3] = test system: EVSA-T (human breast carcinoma); assay: Anti-proliferative activity, Alamar Blue assay, EVSA-T; assay type: cell-based; details: for inhibition at 10 µM / EC50: Homo sapiens; for inhibition at 10 µM: read-out: EVSA-T prolif: % inhibition
[4] = Probe A AVPIK(5&6FAM)-amide, read-out: IC50 or PI cIAP1: IC50
[5] = EVSA-T, 72 hours, Alamar Blue, read-out: EVSA-T prolif (EC50)
[6] = Probe B AbuRPFK(5&6FAM)-amide, read-out: IC50 or PI cIAP1: IC50
[7] = read-out: IC50 or PI cIAP1: IC50
[8] = EVSA-T cell line, 72 hours, Alamar Blue, read-out: EC50, inhibition of cell growth
[9] = EVSA-T, 72 h, read-out: EVSA-T prolif (EC50)
[10] = EVSA-T, 72 h, read-out: EC50, inhibition of cell growth

C[C@@H]1CN(CC(=O)N2CCc3cc(=O)n(Cc4ccccc4)cc32)CCN1.Cl [Example 39, 6-Benzyl-1-[2-((R)-3-methyl-piperazin-1-yl)-acetyl]-1,2,3,6-tetrahydro-pyrrolo[2,3-c]pyridin-5-one hydrochloride salt]
inhibition at 3 µM ([1]; 1 h, @ 3 μM, read-out: IC50 or PI Xiap: PI): 55%
inhibition at 1 µM ([2]; 3 h, Probe A, @ 1 μM, read-out: IC50 or PI cIAP1: PI): 46%
EVSA-T prolif: % inhibition ([3]; concentration not printed (cell truncated)): −15% at

C[C@@H]1CN(CC(=O)N2CC(C)(C)c3ccc(Cl)cc32)[C@@H](CO)CN1 [Example 40, 1-(6-Chloro-3,3-dimethyl-2,3-dihydro-indol-1-yl)-2-((2R,5R)-2-hydroxymethyl-5-methyl-piperazin-1-yl)-ethanone hydrochloride salt]
IC50 [1]: 960 nM
IC50 [2]: < 1000 nM
IC50 [2, 4]: 820 nM
inhibition at 10 µM ([3]; EVSA-T, at 10 μM): 45%

C[C@@H]1CN(CC(=O)N2CCc3cc(F)c(S(=O)(=O)c4ccccc4)cc32)CCN1 [Example 41, 1-(6-Benzenesulfonyl-5-fluoro-2,3-dihydro-indol-1-yl)-2-((R)-3-methyl-piperazin-1-yl)-ethanone]
IC50 [1]: 470 nM
IC50 [2, 4]: 1300 nM
EC50 [3, 5]: 5700 nM

C[C@@H]1CN(CC(=O)N2CC(C)(C)c3ccc(S(=O)(=O)c4ccccc4)cc32)CCN1 [Example 43, 1-(6-Benzenesulfonyl-3,3-dimethyl-2,3-dihydro-indol-1-yl)-2-((R)-3-methyl-piperazin-1-yl)-ethanone hydrochloride salt]
IC50 [1]: 640 nM
IC50 [2, 4]: 450 nM
EC50 [3, 5]: 2400 nM

CC(=O)NC[C@H]1CN[C@H](C)CN1CC(=O)N1CC(C)(C)c2ccc(Cl)cc21 [Example 45, N-{(2R,5R)-1-[2-(6-Chloro-3,3-dimethyl-2,3-dihydro-indol-1-yl)-2-oxo-ethyl]-5-methyl-piperazin-2-ylmethyl}-acetamide hydrochloride salt]
IC50 [1]: 1100 nM
IC50 [2, 6]: 580 nM
EC50 [3, 5]: 5200 nM

C[C@@H]1CN(CC(=O)N2CC(C)(C)c3cc(F)c(S(=O)(=O)N4CCCC4)cc32)CCN1 [Example 49, 1-[5-Fluoro-3,3-dimethyl-6-(pyrrolidine-1-sulfonyl)-2,3-dihydro-indol-1-yl]-2-((R)-3-methyl-piperazin-1-yl)-ethanone dihydrochloride salt]
IC50 [1]: 640 nM
IC50 [2, 7]: 4100 nM
inhibition at 10 µM ([3]; EVSA-T): 2%

CNC(=O)[C@H]1CN[C@H](C)CN1CC(=O)N1CC(C)(C)c2cc(F)c(S(=O)(=O)c3ccccc3)cc21 [Example 56, (2R,5R)-1-[2-(6-Benzenesulfonyl-5-fluoro-3,3-dimethyl-2,3-dihydro-indol-1-yl)-2-oxo-ethyl]-5-methyl-piperazine-2-carboxylic acid methylamide hydrochloride salt]
IC50 [1]: 110 nM
IC50 [2]: < 1000 nM
IC50 [2, 6]: 130 nM
EC50 [3, 8]: < 10000 nM
EC50 [3, 5]: 2300 nM

CCS(=O)(=O)c1ccc2c(c1)N(C(=O)CN1C[C@@H](C)NC[C@@H]1COC)CC2(C)C [Example 59, 1-(6-Ethane-sulfonyl-3,3-dimethyl-2,3-dihydro-indol-1-yl)-2-((2R,5R)-2-methoxymethyl-5-methyl-piperazin-1-yl)-ethanone dihydrochloride salt]
IC50 [1]: 310 nM
IC50 [2, 7]: 500 nM
EC50 [3, 9]: 9700 nM

CNS(=O)(=O)c1ccc2c(c1)N(C(=O)CN1C[C@@H](C)NC[C@@H]1COC)CC2(C)C [Example 61, 1-[2-((2R,5R)-2-Methoxymethyl-5-methyl-piperazin-1-yl)-acetyl]-3,3-dimethyl-2,3-dihydro-1H-indole-6-sulfonic acid methylamide dihydrochloride salt]
IC50 [1]: 220 nM
IC50 [2, 7]: 1600 nM
inhibition at 10 µM ([3]; EVSA-T): 0%

COC[C@H]1CN[C@H](C)CN1CC(=O)N1CC(C)(C)c2ccc(S(=O)(=O)N(C)C)cc21 [Example 68, 1-[2-((2R,5R)-2-Methoxymethyl-5-methyl-piperazin-1-yl)-acetyl]-3,3-dimethyl-2,3-dihydro-1H-indole-6-sulfonic acid dimethylamide dihydrochloride salt]
IC50 [1]: 230 nM
IC50 [2, 7]: 1200 nM
EC50 [3, 10]: < 10000 nM
EC50 [3, 9]: 6400 nM

COC[C@H]1CN[C@H](C)CN1CC(=O)N1CC(C)(C)c2ccc(S(=O)(=O)NC(C)C)cc21 [Example 69, 1-[2-((2R,5R)-2-Methoxymethyl-5-methyl-piperazin-1-yl)-acetyl]-3,3-dimethyl-2,3-dihydro-1H-indole-6-sulfonic acid isopropylamide dihydrochloride salt]
IC50 [1]: 280 nM
IC50 [2, 7]: 1400 nM
inhibition at 10 µM ([3]; EVSA-T): 54%

COC[C@H]1CN[C@H](C)CN1CC(=O)N1CC(C)(C)c2ccc(S(=O)(=O)Cc3ccccc3)cc21 [Example 70, 1-(3,3-Dimethyl-6-phenylmethane-sulfonyl-2,3-dihydro-indol-1-yl)-2-((2R,5R)-2-methoxymethyl-5-methyl-piperazin-1-yl)-ethanone dihydrochloride salt]
IC50 [1]: 380 nM
IC50 [2, 7]: 820 nM
EC50 [3, 10]: < 10000 nM
EC50 [3, 9]: 7900 nM

COC[C@H]1CN[C@H](C)CN1CC(=O)N1CC2(CN(C(C)=O)C2)c2ccc(Cl)cc21 [Example 71, 1-{1-Acetyl-6′-chloro-1′,2′-dihydrospiro[azetidine-3,3′-indole]-1′-yl}-2-[(2R,5R)-2-(methoxymethyl)-5-methylpiperazin-1-yl]ethan-1-one hydrochloride salt]
IC50 [1]: 490 nM
IC50 [2, 6]: 540 nM
EC50 [3, 8]: < 10000 nM
EC50 [3, 5]: 7700 nM

COC[C@H]1CN[C@H](C)CN1CC(=O)N1CC(C)(C)c2cnc(Oc3ccccc3)cc21 [Example 74, 1-(3,3-Dimethyl-6-phenoxy-2,3-dihydro-pyrrolo[3,2-c]pyridin-1-yl)-2-((2R,5R)-2-methoxymethyl-5-methyl-piperazin-1-yl)-ethanone hydrochloride salt]
IC50 [1]: 390 nM
IC50 [2, 6]: 99 nM
EC50 [3, 5]: 560 nM

COC[C@H]1CN[C@H](C)CN1CC(=O)N1CC2(CN(C(C)=O)C2)c2ccc(Cc3ccccc3)cc21 [Example 76, 1-{1-Acetyl-6′-benzyl-1′,2′-dihydrospiro[azetidine-3,3′-indole]-1′-yl}-2-[(2R,5R)-2-(methoxymethyl)-5-methylpiperazin-1-yl]ethan-1-one hydrochloride salt]
IC50 [1]: 64 nM
IC50 [2, 6]: 16 nM
EC50 [3, 5]: 780 nM

COC[C@H]1CN[C@H](C)CN1CC(=O)N1CC(C)(C)c2cnc(Cc3ccccc3F)cc21 [Example 77, 1-{6-[(2-Fluorophenyl)methyl]-3,3-dimethyl-1H,2H,3H-pyrrolo[3,2-c]pyridin-1-yl}-2-[(2R,5R)-2-(methoxy-methyl)-5-methyl-piperazin-1-yl]ethan-1-one]
IC50 [1]: 170 nM
IC50 [2, 6]: 9 nM
EC50 [3, 5]: 160 nM

COC[C@H]1CN[C@H](C)CN1CC(=O)N1CC(C)(C)c2cnc(Cc3ccccc3Cl)cc21 [Example 78, 1-{6-[(2-Chlorophenyl)methyl]-3,3-dimethyl-1H,2H,3H-pyrrolo[3,2-c]pyridin-1-yl}-2-[(2R,5R)-2-(methoxy-methyl)-5-methyl-piperazin-1-yl]ethan-1-one hydrochloride salt]
IC50 [1]: 530 nM
IC50 [2, 6]: 35 nM
EC50 [3, 5]: 1900 nM

COC[C@H]1CN[C@H](C)CN1CC(=O)N1CC(C)(C)c2cnc(CC3CCCCC3)cc21 [Example 79, 1-[6-(Cyclohexylmethyl)-3,3-dimethyl-1H,2H,3H-pyrrolo[3,2-c]pyridin-1-yl]-2-[(2R,5R)-2-(methoxymethyl)-5-methylpiperazin-1-yl]ethan-1-one]
IC50 [1]: 1000 nM
IC50 [2, 7]: 25 nM
EC50 [3, 5]: 490 nM

COC[C@H]1CN[C@H](C)CN1CC(=O)N1CC(C)(C)c2cnc(Cc3cccc(Cl)c3)cc21 [Example 86, 1-{6-[(3-Chlorophenyl)methyl]-3,3-dimethyl-1H,2H,3H-pyrrolo[3,2-c]pyridin-1-yl}-2-[(2R,5R)-2-(methoxymethyl)-5-methylpiperazin-1-yl]ethan-1-one, hydrochloride salt]
IC50 [1]: 290 nM
IC50 [2]: < 1000 nM
IC50 [2, 6]: 12 nM
EC50 [3, 5]: 310 nM

COC[C@H]1CN[C@H](C)CN1CC(=O)N1CC(C)(C)c2cnc(C(C)c3ccccc3)cc21 (stereo partly drawn) [Example 87, 1-[3,3-Dimethyl-6-(1-phenylethyl)-1H,2H,3H-pyrrolo[3,2-c]pyridin-1-yl]-2-[(2R,5R)-2-(methoxymethyl)-5-methylpiperazin-1-yl]ethan-1-one, hydrochloride salt]
IC50 [1]: 240 nM
IC50 [2]: < 1000 nM
IC50 [2, 6]: 24 nM
EC50 [3, 5]: 510 nM

COC[C@H]1CN[C@H](C)CN1CC(=O)N1CC(C)(C)c2cnc(Cc3ccc(F)cc3)cc21 [Example 88, 1-{6-[(4-Fluoro-phenyl)methyl]-3,3-dimethyl-1H,2H,3H-pyrrolo[3,2-c]pyridin-1-yl}-2-[(2R,5R)-2-(methoxy-methyl)-5-methyl-piperazin-1-yl]ethan-1-one, hydrochloride salt]
IC50 [1]: 170 nM
inhibition at 0.01 µM ([2]; 3 h, Probe B, @ 0.01 μM, read-out: IC50 or PI cIAP1: PI): 84%
EC50 [3, 5]: 40 nM

COC[C@H]1CN[C@H](C)CN1CC(=O)N1CC(C)(C)c2cnc(C3=CCCC3)cc21 [Example 90, 1-[6-(Cyclopent-1-en-1-yl)-3,3-dimethyl-1H,2H,3H-pyrrolo[3,2-c]pyridin-1-yl]-2-[(2R,5R)-2-(methoxymethyl)-5-methylpiperazin-1-yl]ethan-1-one, hydrochloride salt]
IC50 [1]: 270 nM
IC50 [2, 6]: 79 nM
EC50 [3, 5]: 330 nM
